This passage reports IC50 results from paper PMC12064818, “A general assay platform to study protein pharmacology using ligand-dependent structural dynamics” (Nature Communications, 2025).

The target of this experiment is T1, FLuc-C-HiBiT (Photinus pyralis, UniProt P08659).
T1 construct: firefly luciferase with C-terminal HiBiT tag, E. coli expressed
T1 sequence (P08659 whole entry, looked up): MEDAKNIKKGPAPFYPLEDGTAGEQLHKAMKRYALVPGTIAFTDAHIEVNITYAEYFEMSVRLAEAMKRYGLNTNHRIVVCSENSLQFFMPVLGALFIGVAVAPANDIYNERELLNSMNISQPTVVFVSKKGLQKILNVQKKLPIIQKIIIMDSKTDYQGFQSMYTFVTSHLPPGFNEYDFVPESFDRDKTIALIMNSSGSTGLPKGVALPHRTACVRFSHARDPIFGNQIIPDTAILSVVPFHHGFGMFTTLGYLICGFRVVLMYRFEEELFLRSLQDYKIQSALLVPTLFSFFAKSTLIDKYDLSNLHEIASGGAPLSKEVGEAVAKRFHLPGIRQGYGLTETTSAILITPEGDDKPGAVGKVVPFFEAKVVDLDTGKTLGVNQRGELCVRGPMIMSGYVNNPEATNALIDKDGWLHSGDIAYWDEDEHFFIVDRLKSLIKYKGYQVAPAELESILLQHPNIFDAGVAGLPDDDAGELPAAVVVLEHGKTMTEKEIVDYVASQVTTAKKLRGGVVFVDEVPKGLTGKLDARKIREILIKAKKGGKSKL
Kind of experiment: biochemical. To be noted: enzyme activity, 10 uM ATP; read-out: IC50 or SDR50 (mM) / FLuc E.
Consider `O=C(NCCc1ccccc1F)c1nc2sccn2c1Br` [NCGC00479849-01], for which the IC50 amounted to 7 µM.

With `Cc1ccc(NC(=O)CCc2c(C)nc3cc(-c4ccccc4)nn3c2C)cc1F` [NCGC00109926-01], the IC50 was 11.1 µM.

Regarding `Cc1nn(-c2cccc(Br)c2)c(C)c1[C@@H]1C=C[C@@H](NC(=O)CC(C)(C)CC(=O)O)C1` [NCGC00401591-01], the IC50 was > 30 µM.

For `CN1CCCCCCN(C(=O)Nc2ccc3c(c2)OCCO3)CCC1=O` [NCGC00466735-01], the IC50 was 9.89 µM.

Take `Cc1cc(-c2cc3c(cn2)CN(Cc2nccn2C)CCN3)ccn1` [NCGC00411046-01]: the IC50 stood at 16.1 µM.

For the compound `CCn1ccnc1C1CCN(c2nc3ccccc3s2)CC1` [NCGC00442461-01], the IC50 is 9.89 µM.

In the case of `O=C(COc1ccccc1)Nc1nnc([S+](=O)([O-])Nc2ccccc2)s1` [NCGC00120845-01], the IC50 came to 14 µM.

In the case of `Cc1ccc(OCc2nc(C3CN(C(=O)c4n[nH]c5ccccc45)C3)no2)cc1` [NCGC00456269-01], the IC50 amounted to 8.81 µM.

In the case of `Cc1cn2nc(C(=O)Nc3ccc(N(C)C)cc3)cc2c(N2CCCC2)n1` [NCGC00454051-01], the IC50 amounted to 11.1 µM.

For the compound `CN(C)C1CCN(c2ncnc3c2cnn3-c2ccccc2)CC1` [NCGC00608115-01], the IC50 was > 30 µM.

Take `CC(C)C(=O)NC1CCN(Cc2ccc(-c3nc4cccc(Cl)c4s3)cc2)CC1` [NCGC00632240-01]: the IC50 was > 30 µM.

`O=C(Nc1cccc(-c2ccc(N3CCOCC3)nn2)c1)Nc1ccc2c(c1)CCC2` [NCGC00427612-01]: the IC50 turned out to be 2.79 µM.

Consider `O=C(O)CCn1ncc2cc(OCc3ccc(-c4cccc(CO)c4)cc3)ccc21` [NCGC00418123-01], for which the IC50 stood at 16.1 µM.

As to `CCCNC(=O)C1C(c2cccc(NC(=O)c3ccc(C)cc3)c2)OC(=O)N1Cc1ccc(C)cc1` (stereo not shown) [NCGC00475006-01], the IC50 came to 4.42 µM.

With `CNc1nc(C(=O)NCc2ccc3[nH]c(-c4ccc(F)cc4)c(C)c3c2)cs1` [NCGC00443141-01], the IC50 stood at 11.1 µM.

Consider `CC1CCCN(C(=O)c2cc3ccc4cccnc4c3[nH]2)C1` (stereo not shown) [NCGC00126906-01], for which the IC50 was found to be 0.556 µM.

On to `COc1ccc(C(=O)N2CCc3ccc(C(=O)Nc4ccc5c(c4)OCCO5)cc32)cc1` [NCGC00430278-01], for which the IC50 came to 5.56 µM.

With `COc1ccc(C(=O)NCC2Cc3cc(C)cc(-c4nc5ccccc5s4)c3O2)c(OC)c1OC` (stereo not shown) [NCGC00240387-01], the IC50 was > 30 µM.

On to `Fc1ccc(NCc2ccccc2-c2nnc(-c3ccccc3Cl)o2)cc1Cl` [NCGC00107402-01], for which the IC50 worked out at 15.7 µM.

Consider `CCN(CC1CCOCC1)C(=O)c1cccnc1SC/C=C/c1ccccc1` [NCGC00433298-01], for which the IC50 came out at 12.4 µM.

With `COc1cccc(-c2ccc(-c3nc(C4CCOC4)no3)o2)c1` (stereo not shown) [NCGC00448436-01], the IC50 came out at 9.89 µM.

Consider `COc1ccc(C(=O)Nc2ccccc2-c2nc3ccccc3s2)cc1OC` [NCGC00102625-01], for which the IC50 was > 30 µM.

For `Nc1nc(=O)c2[nH]c(=O)n(C3CC(O)C(CO)O3)c2[nH]1` (stereo not shown) [NCGC00390462-01], the IC50 is > 30 µM.

`O=C(Nc1cc(F)cc(F)c1)Nc1cccc(-c2ccc(N3CCOCC3)nn2)c1` [NCGC00427624-01]: the IC50 is 3.13 µM.

Regarding `COc1cccc(-c2noc(-c3ccc(N4CCCC(CO)C4)nc3)n2)c1OC` (stereo not shown) [NCGC00425266-01], the IC50 came out at 2.79 µM.

On to `CC(C)c1ccc(C(=O)Nc2ccc(-c3nc4ccccc4s3)c(Cl)c2)cc1` [NCGC00101984-01], for which the IC50 was > 30 µM.

In the case of `CCC(C)NC(=O)Cn1c(C)ccc(NC(=O)Nc2ccc(C)cc2)c1=O` (stereo not shown) [NCGC00430780-01], the IC50 was determined as 1.24 µM.

On to `COc1cccc(-c2nc(-c3cccc(C(=O)O)c3)no2)c1` [NCGC00168766-01], for which the IC50 is 0.00394 µM.

On to `CCOc1ccc2nc(NC(=O)c3ccccc3)sc2c1` [NCGC00099426-02], for which the IC50 worked out at 0.881 µM.

For the compound `COc1ccc(NC(=O)Nc2cccc(-c3ccc(N4CCOCC4)nn3)c2)cc1F` [NCGC00427622-01], the IC50 is 0.881 µM.

Take `COc1cccc(CC(=O)Nc2ccc(-c3nc4ccccc4s3)cc2)c1` [NCGC00137800-01]: the IC50 came out at 8.81 µM.

Turning to `Cc1cccc(NC(=O)c2ccc(-c3ccccc3)s2)c1` [NCGC00114320-01], the IC50 was found to be 2.79 µM.

In the case of `O=C(O)[C@@H]1CN(Cc2ccccc2)C[C@@H]1C(=O)N1CCc2ccccc21` [NCGC00464394-01], the IC50 is > 30 µM.

For the compound `Cc1nnn2c(C(=O)NC3CC3)cccc12` [NCGC00477171-01], the IC50 was found to be 25.4 µM.

For the compound `O=C(Nc1cnc(-c2ccccc2)nc1)C1CCCC1` [NCGC00432867-01], the IC50 came to 2.48 µM.

Turning to `O=C(NCCn1cccc1-c1nc(-c2ccc3c(c2)OCO3)no1)c1ccc(Cl)cc1` [NCGC00445582-01], the IC50 is 9.89 µM.

As to `CCOc1ccc(NC(=O)CCc2c(C)nc3cc(-c4ccc(Cl)cc4)nn3c2C)cc1` [NCGC00110024-01], the IC50 came out at 2.79 µM.

On to `COc1ccc(C(=O)Nc2ccc(-c3nc4ccccc4s3)c(Cl)c2)cc1Cl` [NCGC00102002-01], for which the IC50 is > 30 µM.

`Cn1ccnc1CN1CCNc2cc(Nc3ccccc3)ncc2C1` [NCGC00411128-01]: the IC50 turned out to be 16.1 µM.

As to `c1cncc(Nc2cc3c(cn2)CN(Cc2c[nH]cn2)CCN3)c1` [NCGC00411246-03], the IC50 was > 30 µM.

For `Cc1ccc(-c2cc3c(=O)n(CCNC(=O)c4nccc5ccccc45)ccn3n2)c(C)c1` [NCGC00456974-01], the IC50 worked out at 8.81 µM.

Take `O=C(Nc1ccc2c(c1)OCCO2)N1CCC2(CC1)CC(N1CCCC1)CCO2` (stereo not shown) [NCGC00453772-01]: the IC50 was 11.1 µM.

With `c1ccc(-c2cnc(Nc3ccc4c(c3)OCCO4)c3c2CCO3)cc1` [NCGC00412769-01], the IC50 is 16.1 µM.

For the compound `COc1ccccc1C(=O)Nc1ccc(-c2nc3ccccc3s2)c(C)c1` [NCGC00137840-01], the IC50 amounted to 9.89 µM.

Regarding `O=C(Nc1cccc(-c2ccc(N3CCOCC3)nn2)c1)Nc1cc(F)ccc1F` [NCGC00427590-01], the IC50 came out at 2.48 µM.

For the compound `CCn1cc(-c2cc3c(cn2)CN(C)CCN3)cn1` [NCGC00411244-01], the IC50 was determined as 22.6 µM.

In the case of `CCCC(=O)N1CCN(c2nc3ccc(F)cc3s2)CC1` [NCGC00137065-01], the IC50 worked out at 11.1 µM.

Take `O=C1N(c2ccccc2)C[C@H]2CN(Cc3ccccc3)CCN12` [NCGC00393129-01]: the IC50 is 20.2 µM.

With `Cc1cn2nc(C(=O)Nc3ccc4c(c3)OCCO4)cc2c(N(C)Cc2ccccc2)n1` [NCGC00454161-01], the IC50 worked out at 9.89 µM.

`Cc1ccc(C(=O)Nc2ccccc2C(=O)O)cc1[S+](=O)([O-])N1CCCCCC1` [NCGC00098472-01]: the IC50 was 2.79 µM.

Turning to `Clc1ccc(OCc2nc3ccccc3n2Cc2ccccc2)c(Cl)c1` [NCGC00098959-01], the IC50 is 7 µM.

Consider `O=C(CCCc1ccccc1)N1CCC2(CC1)CC(O)CCO2` (stereo not shown) [NCGC00452928-01], for which the IC50 is 12.4 µM.

On to `Cc1ccc2[nH]c([C@H]3CCN(C(C)C)C3)nc2c1` [NCGC00391182-01], for which the IC50 came out at 25.4 µM.

As to `CCOc1ccc(-c2cc3c(=O)n(CCNC(=O)c4ccncc4)ccn3n2)cc1` [NCGC00456950-01], the IC50 amounted to 3.51 µM.

For the compound `COc1ccc(NC(=O)Nc2ccc(C)n(CC(=O)N3CCCCCC3)c2=O)cc1` [NCGC00430834-01], the IC50 turned out to be 9.89 µM.

Regarding `Cc1ccc(C2=NOC3(CCN(C(=O)c4cccc(N(C)C)c4)CC3)N2)cc1` [NCGC00446875-01], the IC50 was 9.89 µM.

Turning to `Cc1ccc(C2Cn3nnc(C(=O)N4CCC(C(=O)NCc5ccncc5)CC4)c3CO2)cc1` (stereo not shown) [NCGC00449555-01], the IC50 turned out to be 11.1 µM.

Consider `O=C(O)c1cccc(-c2noc(-c3cccc(Cl)c3)n2)c1` [NCGC00168763-01], for which the IC50 was 0.007 µM.

In the case of `Cc1ccc(-n2ncc3c(N(C)Cc4ccccc4)ncnc32)cc1` [NCGC00139028-01], the IC50 was determined as 1.57 µM.

Turning to `COc1ccc(NC(=O)Nc2cccc(-c3ccc(N4CCOCC4)nn3)c2)cc1Cl` [NCGC00427610-01], the IC50 amounted to 1.24 µM.

With `O=C([C@@H]1C[C@@H](O)[C@H](O)[C@@H]2NC(=S)N(c3ccc4c(c3)OCO4)[C@@H]21)N1CCOCC1` [NCGC00397934-01], the IC50 turned out to be 14.3 µM.

On to `COc1ccc(Nc2cc3c(nc2OC)nc(CCc2ccccc2)n3C)cn1` [NCGC00417814-01], for which the IC50 stood at 20.2 µM.

In the case of `Cc1ccccc1CCNC(=O)c1ccc2c(c1)nc1n2CCCCC1` [NCGC00133334-01], the IC50 is 0.881 µM.

Turning to `O=C(Nc1cccc(-c2ccc(N3CCOCC3)nn2)c1)Nc1cccc(Cl)c1F` [NCGC00427620-01], the IC50 came to 5.56 µM.

Regarding `Cn1cc(-c2cccc(COc3ccc4c(cnn4CC[S+](C)(=O)[O-])c3)c2)cn1` [NCGC00418049-01], the IC50 came to 18 µM.

On to `Cc1cc2nn(-c3ccc(Cl)cc3)nc2cc1NC(=O)C(C)C` [NCGC00099081-01], for which the IC50 was found to be 0.7 µM.

With `Cc1ccc(NC(=O)c2oc3ccc4c(c3c2C)C(=O)CC(C)(C)O4)c(C)c1` [NCGC00122260-01], the IC50 is 9.89 µM.

For `COC(=O)C1CCN(c2csc3ccc(C)cc3c2=O)CC1` [NCGC00132290-01], the IC50 came to 7.85 µM.

With `Cc1ccc(-c2cc(N3CCC(CNC(=O)c4ccc5[nH]cnc5c4)CC3)[nH]n2)cc1` [NCGC00437766-01], the IC50 amounted to 8.81 µM.

For `CCNC(=O)N[C@@H]1C=C[C@@H](c2c(C)nn(-c3ccc(C(C)C)cc3)c2C)C1` [NCGC00399948-01], the IC50 amounted to 2.86 µM.

On to `CCOC(=O)c1cccc(NC(=O)CCc2c(C)nc3cc(-c4ccc(Cl)cc4)nn3c2C)c1` [NCGC00110030-01], for which the IC50 is 8.81 µM.

For `Cc1ccc2nc(-c3ccc(NC(=O)CSc4nnc(C)s4)cc3)sc2c1` [NCGC00598135-01], the IC50 is 0.624 µM.

As for `O=C(Nc1cccnc1)c1cc(-c2ccc(Cl)cc2)on1` [NCGC00105781-01], the IC50 came out at 2.48 µM.

With `Cc1ccc(C(=O)NC2CC2)cc1-c1ccc2[nH]ncc2c1` [NCGC00242033-03], the IC50 was > 30 µM.

`CCN1CCN(C(=O)Cn2c(C)ccc(NC(=O)Nc3ccc(C)cc3)c2=O)CC1` [NCGC00430774-01]: the IC50 came to 4.95 µM.

As to `Cc1cc(-c2cc3c(cn2)CN(Cc2cccs2)CCN3)ccn1` [NCGC00411196-01], the IC50 amounted to 11.4 µM.
